Publication PMC4410478, “Larvicidal activity and possible mode of action of four flavonoids and two fatty acids identified in Millettia pinnata seed toward three mosquito species” (Parasites & Vectors, 2015)
≈ marks a conversion by molar mass, not a printed value. Where two headings read alike, the source gives them in different places.

How the values were obtained:
[1] = system: different mosquito species larvae; conditions: cited from earlier work
[2] = system: octopamine sensitive adenylate cyclase, whole body homogenate from third instar A. aegypti larvae; assay: Determination of cyclic AMP level (octopamine sensitive adenylate cyclase activity); type: biochemical, Aedes aegypti; conditions: 100 μM test compound; octopamine 100 μM alone as comparator
Method: The in vitro octopamine sensitive adenylate cyclase activity was investigated according to the modified method of Pratt and Pryor [35]. The whole bodies of 75 third instar A. aegypti larvae (106.2 mg) were homogenized in 500 μL of 2 mM Tris-maleate buffer (pH 7.4) containing 0.8 mM ethylene glycol tetraacetic acid (EGTA). Adenylate cyclase activity was measured using a cAMP Biotrak Enzyme immunoassay system according to the manufacturer’s instructions. The assay was conducted in a total volume of 100 μL containing 80 mM Tris-maleate buffer, 5 mM theophylline (to inhibit phosphodiesterase activity), 2 mM MgSO4, 0.5 mM adenosine triphosphate (ATP), 0.2 mM EGTA, 50 μL of whole body homogenate (equivalent to 4.22 μg protein), and 1 μL of the test compounds in Tris-maleate buffer containing 0.2% ethanol. After incubation for 5 min at 20°C, the reaction was initiated by the addition of ATP. Incubation was carried out at 30°C for 3 min in a shaking water bath. The reaction was terminated by boiling for 2 min, and then the assay tube was cooled and centrifuged for 10 min at 8000 g. The 50 μL aliquots of the supernatant were assayed for cAMP level.
The polystyrene microplates (1 strip of 8 wells) coated with a goat anti-mouse polyclonal antibody were used. Fifty microliters of primary antibody (mouse monoclonal antibody) solution was added to each well except the blank wells (or the nonspecific binding (NSB) wells). The wells covered with the adhesive strip were incubated for 1 h at 25°C in a shaking incubator (480 rpm), followed by four times washing steps, each with 400 μL of wash buffer. The 50 μL of the test samples for cAMP determination and cAMP standard were added to wells. Control, blank (NSB), and zero standard wells were added with 50 μL of the diluent RD5-55 buffer. The 50 μL of cAMP conjugate (horseradish peroxidase-labeled cAMP) was then added to wells. The plate covered with a new adhesive strip was incubated for 2 h at 25°C on the shaker, followed by the four times washing steps. Then, 200 μL of substrate solution (equal volume of stabilized hydrogen peroxide and stabilized chromogen) was added to each well, and the test plate was incubated for 30 min at 25°C on the benchtop in darkness. Finally, the reaction was stopped by adding 100 μL of stop solution (2 N sulfuric acid) to each well. Optical densities at 450 and 540 nm were measured using the VersaMax microplate reader. The readings at 540 nm were subtracted from the readings at 450 nm. The cAMP concentrations were expressed as nmol/μg protein. Results were expressed as mean ± SE of duplicate samples of three independent experiments.

[3] = system: third instar Culex pipiens pallens larvae; assay: direct-contact mortality bioassay; conditions: for LC50: Culex pipiens, 24 h, read-out: LC50, mg/L (95% CL)
Method: (§1) A direct-contact mortality bioassay was used to evaluate the toxicity of all compounds to third instar larvae from the susceptible and wild mosquito populations. Each compound in acetone (for karanjin) or methanol (for the other compounds) was suspended in distilled water with Triton X-100 (20 μL/L). Groups of 20 mosquito larvae were separately put into paper cups (270 mL) containing each test compound solution (250 mL). The OPs temephos and fenthion served as positive controls and were similarly formulated. Negative controls consisted of the acetone– or methanol–Triton X-100 solution in distilled water. […] Treated and control (acetone– or methanol–Triton X-100 solution only) larvae were held under the same conditions as those used for colony maintenance. […] All treatments were replicated three times using 20 larvae per replicate.
(§2) In separate experiments, the efficacy of the 12 experimental liquid formulations was evaluated, as stated previously. Groups of 20 mosquito larvae were separately put into paper cups containing each test solution. Temephos 200 g/L EC served as a positive control. Negative controls consisted of the ethoxylated castor oil + polyoxyethylene dodecyl mono ether solution in distilled water or water. Mortalities were recorded, as stated previously. All treatments were replicated three times using 20 larvae per replicate.
(§3) Data were corrected for control mortality using Abbott’s formula [36]. The percentages of mortality were transformed to arcsine square-root values for analysis of variance (ANOVA). […] IC50 values and cAMP levels were subjected to ANOVA. The Bonferroni multiple-comparison method was used for comparison of means. Means ± SE of untransformed data are reported. Concentration–mortality data were subjected to probit analysis.

[4] = system: third instar Aedes aegypti larvae; assay: direct-contact mortality bioassay; conditions: for LC50: Aedes aegypti, 24 h, read-out: LC50, mg/L (95% CL)
Method: as §1, §2, §3

[5] = system: third instar larvae from wild Aedes albopictus; assay: direct-contact mortality bioassay; conditions: for LC50: Aedes albopictus, 24 h, read-out: LC50, mg/L (95% CL)
Method: as §1, §2, §3

[6] = target: AChE from A. aegypti larvae (Aedes aegypti, UniProt A4GND7); assay: Acetylcholinesterase assay (microplate); type: biochemical; conditions: acetylthiocholine iodide hydrolysis at 30°C and pH 8.0
Method: Third instar larvae of A. aegypti was used in all experiments. […] After filtering through cheese cloth, the homogenate was centrifuged at 1000 g at 4°C for 5 min. The supernatant was used as the acetylcholinesterase (AChE) preparation. Protein content was determined by the Bradford dye method using BSA as the standard. Microplate AChE assay was carried out following the method of Hemingway et al. adapted from Ellman et al.. The reaction mixture consisted of 50 μL of the crude enzyme preparation, 150 μL of 0.1 M phosphate buffer, 20 μL of 3 mM DTNB in phosphate buffer (pH 7.0), and 1 μL of various concentrations of each test compound in ethanol. The reaction mixture was incubated at 30°C for 5 min and 20 μL of 32 mM ATChI was then added to the mixture. After incubation for 30 min, the reaction was stopped by adding 20 μL of 5 mM eserine salicylate. The absorbance was recorded at 412 nm using a VersaMax microplate reader (Molecular Devices, Sunnyvale, CA). Results were expressed as mean ± SE of triplicate samples of three independent experiments.
IC50 values and cAMP levels were subjected to ANOVA. […] Means ± SE of untransformed data are reported. Concentration–mortality data were subjected to probit analysis.

Chain of AChE from A. aegypti larvae (A4GND7 37-679): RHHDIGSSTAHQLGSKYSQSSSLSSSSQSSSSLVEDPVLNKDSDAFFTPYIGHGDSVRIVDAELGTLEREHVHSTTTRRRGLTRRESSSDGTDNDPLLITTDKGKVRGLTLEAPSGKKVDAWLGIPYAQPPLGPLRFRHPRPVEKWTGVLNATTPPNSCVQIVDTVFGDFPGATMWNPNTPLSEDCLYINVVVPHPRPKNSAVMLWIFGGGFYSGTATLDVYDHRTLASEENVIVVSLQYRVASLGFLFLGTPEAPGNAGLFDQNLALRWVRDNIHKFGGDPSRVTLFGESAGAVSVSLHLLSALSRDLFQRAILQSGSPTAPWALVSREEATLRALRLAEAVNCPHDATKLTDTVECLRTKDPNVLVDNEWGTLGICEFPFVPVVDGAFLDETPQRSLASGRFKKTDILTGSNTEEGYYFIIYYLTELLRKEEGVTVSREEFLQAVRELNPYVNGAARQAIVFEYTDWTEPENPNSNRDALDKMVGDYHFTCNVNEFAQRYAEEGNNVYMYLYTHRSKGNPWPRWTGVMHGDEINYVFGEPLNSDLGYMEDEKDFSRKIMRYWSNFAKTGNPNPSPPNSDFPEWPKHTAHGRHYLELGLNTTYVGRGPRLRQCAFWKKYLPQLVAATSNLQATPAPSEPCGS

Row | Compound | LC50 [3] [mg/L] | LC50 [4] [mg/L] | LC50 [5] [mg/L] | other results
1 | CCCCOCc1ccc(O)cc1 [4-butoxymethylphenol] |  |  |  | LC50 ([1]; phenol): 0.05 µg/mL (≈ 0.277 µM)
2 | CCCCCCCCCCCCCCCCCCCC(=O)O [Arachidic acid, arachidic acid] |  |  |  | cAMP level compared with that induced by octopamine [2]: significantly higher than that induced by octopamine
3 | CCCCCCCCCCCCCCCCCCCCCC(=O)O [Behenic acid, behenic acid] | 68.8 (≈ 202 µM) | 86.8 (≈ 255 µM) | 105 (≈ 309 µM) | cAMP level compared with that induced by octopamine [2]: significantly higher than that induced by octopamine
4 | CCCCCCCC/C=C/CCCCCCCC(=O)O [Elaidic acid, elaidic acid] | 28.2 (≈ 99.9 µM) | 32.2 (≈ 114 µM) | 66.3 (≈ 235 µM) | cAMP level compared with that induced by octopamine [2]: significantly higher than that induced by octopamine
5 | CCCCC/C=C\C/C=C\CCCCCCCC(=O)OCC [Ethyl linoleate, ethyl linoleate] | > 200 | > 200 | > 200 | 
6 | CCCCCCCC/C=C\CCCCCCCC(=O)OCC [Ethyl oleate, ethyl oleate] | > 200 | > 200 | > 200 | 
7 | COP(=S)(OC)Oc1ccc(SC)c(C)c1 [Fenthion, fenthion, reference compound] | 0.027 (≈ 0.097 µM) | 0.022 (≈ 0.079 µM) | 0.033 (≈ 0.119 µM) | 
8 | COc1c(-c2ccccc2)oc2c3c(ccc2c1=O)OC(C)(C)C=C3 [Karanjachromene (2), karanjachromene] | 18.7 (≈ 56 µM) | 20.6 (≈ 61.5 µM) | 53 (≈ 158 µM) | 
9 | COc1c(-c2ccccc2)oc2c(ccc3occc32)c1=O [Karanjin (1), karanjin] | 14.6 (≈ 50 µM) | 16.1 (≈ 55.2 µM) | 35.3 (≈ 121 µM) | 
10 | CCCCC/C=C\C/C=C\CCCCCCCC(=O)O [Linoleic acid, linoleic acid] | 20.1 (≈ 71.8 µM) | 21.3 (≈ 75.9 µM) | 68.9 (≈ 246 µM) | cAMP level compared with that induced by octopamine [2]: significantly higher than that induced by octopamine
11 | CC/C=C\C/C=C\C/C=C\CCCCCCCC(=O)O [Linolenic acid, linolenic acid] | 21.3 (≈ 76.6 µM) | 22.6 (≈ 81.1 µM) | 71.3 (≈ 256 µM) | cAMP level compared with that induced by octopamine [2]: significantly higher than that induced by octopamine
12 | CCCCC/C=C\C/C=C\CCCCCCCC(=O)OC [Methyl linoleate, methyl linoleate] | > 200 | > 200 | > 200 | 
13 | CCCCCCCC/C=C\CCCCCCCC(=O)OC [Methyl oleate, methyl oleate] | > 200 | > 200 | > 200 | 
14 | CCCCCCCC/C=C\CCCCCCCC(=O)O [Oleic acid (3), oleic acid] | 18.1 (≈ 64 µM) | 18.4 (≈ 65.3 µM) | 18.8 (≈ 66.5 µM) | cAMP level compared with that induced by octopamine [2]: significantly lower than that induced by octopamine
15 | CCCCCCCCCCCCCCCC(=O)O [Palmitic acid (4), palmitic acid] | 34.5 (≈ 135 µM) | 43 (≈ 168 µM) | 85.6 (≈ 334 µM) | cAMP level compared with that induced by octopamine [2]: significantly lower than that induced by octopamine; AChE inhibition IC50 [6]: lowest of any of the compounds examined
16 | O=c1c2c(oc3c1ccc1occc13)COc1ccccc1-2 [Pongarotene (6), pongarotene] | 25.5 (≈ 87.9 µM) | 37.6 (≈ 130 µM) | 65 (≈ 224 µM) | 
17 | CCCCCCCCCCCCCCCCCC(=O)O [Stearic acid, stearic acid] | > 200 | > 200 | > 200 | 
18 | COP(=S)(OC)Oc1ccc(Sc2ccc(OP(=S)(OC)OC)cc2)cc1 [Temephos, temephos, reference compound] | 0.013 (≈ 0.0279 µM) | 0.015 (≈ 0.0322 µM) | 0.01 (≈ 0.0214 µM) | 

Row | Compound | LC50 [3] [mg/L] | LC50 [4] [mg/L] | LC50 [5] [mg/L] | other results
19 | CC#CC#CC(=O)c1ccccc1 [capillin] |  |  |  | LC50 ([1]; polyacetylene): < 10 µg/mL
20 | C/C=C/c1ccc2c(c1)[C@@H](C)[C@H](c1ccc(O)cc1)O2 [conocarpan] |  |  |  | LC50 ([1]; neolignans): < 10 µg/mL
21 | N#C[C@@H](O[C@@H]1O[C@H](CO)[C@@H](O)[C@H](O)[C@H]1O)c1ccc(O)cc1 [dhurrin] |  |  |  | LC50 ([1]; cyanogenic glycoside): 1.12 µg/mL (≈ 3.6 µM)
22 | CCOC(=O)/C=C/c1ccccc1 [ethyl cinnamate] |  |  |  | LC50 ([1]; phenylpropanoids): 12.3 µg/mL (≈ 69.8 µM)
23 | CCOC(=O)C=Cc1ccc(OC)cc1 [ethyl p-methoxycinnamate] |  |  |  | LC50 ([1]; phenylpropanoids): 20.7 µg/mL (≈ 100 µM)
24 | C/C=C/c1ccc2oc(-c3ccc(O)cc3)c(C)c2c1 [eupomatenoid-6] |  |  |  | LC50 ([1]; neolignans): < 10 µg/mL
25 | C=C[C@@H](O)C#CC#C[C@@H](O)/C=C\CCCCCCC [falcarindiol] |  |  |  | LC50 ([1]; acetylenic alcohols): 6.51 µg/mL (≈ 25 µM)
26 | C=C[C@H](O)C#CC#CC/C=C\CCCCCCC [falcarinol] |  |  |  | LC50 ([1]; acetylenic alcohols): 3.49 µg/mL (≈ 14.3 µM)
27 | O=C1C=CC[C@H](/C=C/c2ccccc2)O1 [goniothalmin] |  |  |  | LC50 ([1]; lactone): 0.87 to 25.95 µg/mL
28 | CC(C)=CCOc1c2occc2cc2ccc(=O)oc12 [imperatorin] |  |  |  | LC50 ([1]; coumarins): 2.88 µg/mL (≈ 10.7 µM)
29 | C=C1CC[C@H]2C(C)(C)CCC[C@]2(C)[C@H]1C/C=C(/C=O)CC=O [labda-8(17)-diene-15,16-dial] |  |  |  | LC50 ([1]; terpenoid): < 10 µg/mL
30 | COc1ccc2ccc(=O)oc2c1CC=C(C)C [osthole] |  |  |  | LC50 ([1]; coumarins): 3.14 µg/mL (≈ 12.9 µM)
31 | COC1=C[C@@H](C)[C@@H]2C[C@H]3OC(=O)C[C@H]4C(C)=C(OC)C(=O)[C@H]([C@@]2(C)C1=O)[C@@]34C [quassin] |  |  |  | LC50 ([1]; terpenoid): 6.0 µg/mL (≈ 15.4 µM)
32 | C/C=C/c1cc(OC)c(OC)cc1OC [α-asarone] |  |  |  | LC50 ([1]; phenylpropanoids): 26.99 µg/mL (≈ 130 µM)
33 | eupomatenoid-5 |  |  |  | LC50 ([1]; neolignans): < 10 µg/mL
34 | piperonaline |  |  |  | LC50 ([1]; alkaloid): 0.21 to 0.25 µg/mL
35 | pongamol [Pongamol (5)] |  |  |  | LC50, mg/L (95% CL) ([3]; compounds, third instar Culex pipiens pallens larvae, 24 h exposure): 23.95 (20.68–27.34) mg/L; LC50, mg/L (95% CL) ([4]; compounds, third instar Aedes aegypti larvae, 24 h exposure): 25.76 (22.44–29.35) mg/L; LC50, mg/L (95% CL) ([5]; compounds, third instar larvae from wild Aedes albopictus, 24 h exposure): 56.14 (49.50–64.69) mg/L
